Columns and labels:
[1] = tested on: muscarinic cholinergic receptor; assay: pharmacological studies, muscarinic cholinergic receptor activity
[2] = target: T1, 5-HT1C receptor (Homo sapiens, UniProt P28335); assay: pharmacological studies, 5-HT1C receptor activity
T1 sequence (P28335 33-458): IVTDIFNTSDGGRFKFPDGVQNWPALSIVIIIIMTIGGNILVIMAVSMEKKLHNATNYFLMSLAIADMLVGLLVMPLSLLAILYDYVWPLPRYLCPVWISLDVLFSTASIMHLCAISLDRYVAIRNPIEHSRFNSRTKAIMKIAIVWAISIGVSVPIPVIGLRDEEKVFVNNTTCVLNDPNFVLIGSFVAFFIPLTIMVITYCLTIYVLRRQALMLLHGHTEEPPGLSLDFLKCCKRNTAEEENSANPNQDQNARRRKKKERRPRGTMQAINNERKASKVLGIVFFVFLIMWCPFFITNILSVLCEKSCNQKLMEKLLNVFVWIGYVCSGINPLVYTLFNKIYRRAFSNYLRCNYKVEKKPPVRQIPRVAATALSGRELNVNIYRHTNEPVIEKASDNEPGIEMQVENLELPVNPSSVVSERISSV

[3] = tested on: ischemia-induced neuronal cell damage (CA1 pyramidal cell layer of the hippocampus); assay: Cerebral Ischemia Model in Rats; assay type: in vivo, Male Wistar rats; conditions: "such experiments"; the sentence does not name a specific test
Excerpt: Cerebral ischemia is produced in rats by occluding the four arteries that supply blood to the brain according to the following procedure. Male Wistar rats are anesthetized with Metofane and placed into a stereotaxic instrument. A longitudinal incision is made on the dorsal surface of the neck. The neck muscles are reflected to expose the dorsal surface of the spinal column. The two vertebral arteries are exposed where they pass through the first cervical vertebra. Both arteries are permanently occluded by the application of electrocautery. After coagulation of the vertebral arteries, the rat is removed from the stereotaxic instrument and the surgical wound is sutured. Two longitudinal incisions are then made on the ventral surface of the neck. The two common carotid arteries are exposed and dissected free from surrounding nerves and connective tissue. An atraumatic clasp, fabricated mainly from silicone rubber tubing, is placed around each carotid artery in a manner such that the vessel is not traumatized or occluded. An indwelling jugular cannula is implanted into each rat for drug delivery. The surgical wounds are then closed. […]
Damage in 4 sections of the dorsal hippocampus from each brain is assessed in order to obtain an accurate estimate of damage. An average damage score is calculated for each treatment group. […] The level of significance is determined using the Mann Whitney-U-test.

[4] = tested on: formation of lipid peroxides; assay: Lipid Peroxidation Test; conditions: test protocol of Aruoma, et al. (1990)

SMILES: Cc1cc2c(s1)Nc1ccccc1N=C2N1CCN(C)CC1 [olanzapine, 2-methyl-4-(4-methyl-1-piperazinyl)-10H-thieno[2,3-b] [1,5] benzodiazepine]
- muscarinic cholinergic receptor activity [1]: has muscarinic cholinergic receptor activity
- activity at the 5-HT1C receptor [2]: active
- neuro-protective effect [3]: significant neuro-protective effect
- inhibition of the formation of lipid peroxides [4]: inhibit the formation of lipid peroxides
